From the NIST ThermoML archive (doi:10.1016/j.jct.2013.12.031)
± gives the expanded uncertainty stated by the source.

Settings: Crystal; visual observation

- Normal melting temperature: 120.00 ± 0.5 °C
Structure (SMILES): Cc1ccc(S(=O)(=O)[O-])cc1.c1ccc2sc[nH+]c2c1 [benzothiazolium p-toluenesulfonate]
